Experimental data from patent publication US11986529B2, “Pharmaceutical compositions and related methods of delivery” (priority 2008, dated 2024).
Like-named read-outs stand apart in the source and are kept apart here. Values belong to the molecule of their own block, whether it stands above or below them.

Key:
[1] = Intra-jejunal administration to non-anesthetized cannulated rats: plasma cargo levels, AUC, bioavailability; settings: rat
Experimental: (§1) Rats are allowed to recover for 4 days before the study and are deprived of food for 18 hours before the start of the study.
(§2) Levels of plasma dextran following administration of dextran in formulation or in saline were compared to the levels of plasma dextran after intravenous administration. Exposure values, AUC (0-90), were determined for jejunal and intravenous administration and the absolute bioavailability (aBA) was calculated according to the following equation: aBA=(jejunal AUC(0-90))/(iv AUC(0-90))*(iv dose/jejunal dose). Data are presented as Mean±SD (n≥5 rats per group).
(§3) The levels of dextran absorption from rat jejunum after administration of dextran in formulation were compared to the levels of dextran absorbed after intravenous administration. Exposure values, AUC (0-90), were determined for jejunal and intravenous administration and the absolute bioavailability (aBA) determined according to the following equation: aBA=(jejunal AUC(0-90))/(iv AUC(0-90))*(iv dose/jejunal dose). Data are presented as Mean±SD (n≥5 rats per group).
(§4) The levels of dextran absorption from rat jejunum after administration of dextran in formulation were compared to the levels of dextran absorbed after intravenous administration. Exposure values, AUC (0-90), were determined for jejunal and intravenous administration and the absolute Bioavailability (aBA) was determined according to the following equation: aBA=(jejunal AUC(0-90))/(iv AUC(0-90))*(iv dose/jejunal dose). Data are presented as Mean±SD (n≥5 rats per group).

blood glucose = assay: Blood glucose after rectal administration of insulin to rats; assay type: in vivo; settings: rat, insulin 328 μg/rat
Text: The data of FIG. 3 is presented as MEAN±SD, n=5.

[2] = Capsule administration to small intestine of non-anesthetized pigs (Nipple Valve gastric bypass); settings: pig, in vivo; read-out: level of bioavailability in pigs, extrapolated from rat results
Text: In order to test the activity of the formulations of the invention when administrated in capsules, an animal model allowing capsule administration to pigs (domestic swine) was established. In order to bypass the stomach and allow direct administration of capsules to the small intestine of the pig, a well established model in dogs (“Nipple Valve model”; Wilsson-Rahmberg & O. Jonsson, Laboratory Animals (1997), 31, 231-240) was adapted to the commercial pig.
The two octreotide formulations shown below in Table 37 were prepared. The octreotide (x) formulation was prepared essentially as described above for the basic formulation wherein the hydrophilic fraction has been simplified to omit MgCl2 and MC400. […] The capsules were not enteric-coated i.e. they were uncoated.
The formulations described above in Table 37 were administered directly to the small intestine of the non-anesthetized pigs via the gastric bypass described above, and plasma octreotide levels were measured post-administration. Exposure values, AUC were determined for the formulations. The % BA was calculated compared to the exposure to octreotide after subcutaneous administration.

[3] = rat, in vivo
Experimental: Rats were anesthetized and were administered 100 μL of bulk drug formulation containing an insulin dose of 328 μg/rat (9 IU/rat). Blood samples were collected at 0, 3, 6, 10, 15, 25, 30, 40, 60 and 90 minutes post administration and serum was prepared for determination of human insulin by an immunoassay kit with no cross reactivity between rat and human insulin.
Rats were anesthetized and administered 100 μL of test article (insulin in formulation or insulin in PBS) containing an insulin dose of 328 μg/rat (9 IU/rat). Blood samples were collected at 0, 3, 6, 10, 15, 25, 30, 40, 60 and 90 minutes post administration. Glucose level was immediately determined with a glucometer and serum was prepared for determination of human insulin by an immunoassay kit with no cross reactivity between rat and human insulin.
Blood samples were collected at 0, 3, 6, 10, 15, 25, 30, 40, 60 and 90 minutes post rectal administration and at 0, 15, 30, 45, 60, 90 min, 2, 3, and 4 hours post SC administration. Glucose was immediately determined with a glucometer and insulin by an immunoassay kit. Glucose levels are presented as the percentage form basal levels measured before administration (time 0).
The levels of insulin absorption from rat colon after insulin in formulation administration were compared to the levels of insulin absorbed after SC administration. […]

[4] = rat, in vivo; remark: listed apart in the source
Experimental: as §1, §2, §3, §4

[5] = rat, in vivo; remark: listed apart in the source
Text: Enteric-coated capsules for rats are not available and therefore stomach bypass enabling direct intra-jejunal administration is needed.
A specialized rat model in which three different cannulas are surgically implanted in anesthetized rats was developed: 1. Jejunal cannula—stomach bypass, enables insulin formulation administration, 2. Portal vein cannula—blood sampling prior to the liver, determine insulin that cross the GI wall into the blood, and 3. Jugular vein cannula—to determine the systemic levels of insulin.
Rats (8 rats per group) were anesthetized and their jejunum exposed by abdominal surgery. The jejunum containing intestinal loop was placed on gauze and kept moist and fully intact throughout the entire study. A temporary cannula was inserted into the jejunum and formulated insulin was administered. Blood was collected from both portal and jugular veins at the same time points, with approximately 4 time points per rat. The MEAN±SD value of each time point was used to create a plasma concentration vs. time curve. AUC was determined and rBA was calculated.

Molecule: CN[C@H](CC(C)C)C(=O)N[C@H]1C(=O)N[C@@H](CC(N)=O)C(=O)N[C@H]2C(=O)N[C@H]3C(=O)N[C@H](C(=O)N[C@H](C(=O)O)c4cc(O)cc(O)c4-c4cc3ccc4O)[C@H](O)c3ccc(c(Cl)c3)Oc3cc2cc(c3O[C@@H]2O[C@H](CO)[C@@H](O)[C@H](O)[C@H]2O[C@H]2C[C@](C)(N)[C@H](O)[C@H](C)O2)Oc2ccc(cc2Cl)[C@H]1O [vancomycin in saline solution, vancomycin]
bioavailability / penetration to the bloodstream [1]: no BA was detected

Molecule: insulin in PBS: human insulin solubilized in PBS
glucose reduction (blood glucose): only a very slight glucose reduction

Molecule: C[C@@H](O)[C@@H]1NC(=O)[C@H](CCCCN)NC(=O)[C@@H](Cc2c[nH]c3ccccc23)NC(=O)[C@H](Cc2ccccc2)NC(=O)[C@@H](NC(=O)[C@H](N)Cc2ccccc2)CSSC[C@@H](C(=O)N[C@H](CO)[C@@H](C)O)NC1=O [octreotide]
bioavailability [2]: ~0.1%

Molecule: hGH in PBS: human growth hormone in PBS, control
penetration to the bloodstream [3]: no penetration to the bloodstream

bioavailability / penetration to the bloodstream [4]: no penetration to the bloodstream
Molecule: CC[C@H](C)[C@H](NC(=O)[C@H](CCC(=O)O)NC(=O)[C@H](CO)NC(=O)[C@@H](NC(=O)[C@@H](N)CO)C(C)C)C(=O)N[C@@H](CCC(N)=O)C(=O)N[C@@H](CC(C)C)C(=O)N[C@@H](CCSC)C(=O)N[C@@H](Cc1cnc[nH]1)C(=O)N[C@@H](CC(N)=O)C(=O)N[C@@H](CC(C)C)C(=O)NCC(=O)N[C@@H](CCCCN)C(=O)N[C@@H](Cc1cnc[nH]1)C(=O)N[C@@H](CC(C)C)C(=O)N[C@@H](CC(N)=O)C(=O)N[C@@H](CO)C(=O)N[C@@H](CCSC)C(=O)N[C@@H](CCC(=O)O)C(=O)N[C@@H](CCCN=C(N)N)C(=O)N[C@H](C(=O)N[C@@H](CCC(=O)O)C(=O)N[C@@H](Cc1c[nH]c2ccccc12)C(=O)N[C@@H](CC(C)C)C(=O)N[C@@H](CCCN=C(N)N)C(=O)N[C@@H](CCCCN)C(=O)N[C@@H](CCCCN)C(=O)N[C@@H](CC(C)C)C(=O)N[C@@H](CCC(N)=O)C(=O)N[C@@H](CC(=O)O)C(=O)N[C@H](C(=O)N[C@@H](Cc1cnc[nH]1)C(=O)N[C@@H](CC(N)=O)C(=O)N[C@@H](Cc1ccccc1)C(=O)O)C(C)C)C(C)C [teriparatide in saline, teriparatide]

Molecule: CCNC(=O)[C@@H]1CCCN1C(=O)[C@H](CCCNC(=N)N)NC(=O)[C@H](CC(C)C)NC(=O)[C@@H](CC(C)C)NC(=O)[C@H](Cc1ccc(O)cc1)NC(=O)[C@H](CO)NC(=O)[C@H](Cc1c[nH]c2ccccc12)NC(=O)[C@H](Cc1c[nH]cn1)NC(=O)[C@@H]1CCC(=O)N1 [leuprolide in PBS, leuprolide]
bioavailability / penetration to the bloodstream [4]: negligible penetration to the bloodstream

Molecule: insulin control: unformulated insulin control given intra-jejunally
insulin absorbance [5]: minimal insulin absorbance
